SMILES strings stand for the structures.

For this assay, the target named is T1, Angiotensin II receptor (Rattus norvegicus, UniProt P29089+P25095+P35351).
T1 sequence (P29089 whole entry): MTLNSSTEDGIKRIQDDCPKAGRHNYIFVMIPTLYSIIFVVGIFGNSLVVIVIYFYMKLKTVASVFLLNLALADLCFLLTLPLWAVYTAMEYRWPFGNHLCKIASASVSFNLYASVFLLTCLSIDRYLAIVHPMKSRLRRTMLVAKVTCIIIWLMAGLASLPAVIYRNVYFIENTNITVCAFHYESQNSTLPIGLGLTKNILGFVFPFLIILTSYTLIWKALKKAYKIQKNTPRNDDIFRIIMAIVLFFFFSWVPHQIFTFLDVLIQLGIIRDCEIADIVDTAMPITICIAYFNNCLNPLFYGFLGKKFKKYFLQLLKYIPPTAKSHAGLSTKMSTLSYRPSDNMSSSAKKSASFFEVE
T1 sequence (P25095 whole entry): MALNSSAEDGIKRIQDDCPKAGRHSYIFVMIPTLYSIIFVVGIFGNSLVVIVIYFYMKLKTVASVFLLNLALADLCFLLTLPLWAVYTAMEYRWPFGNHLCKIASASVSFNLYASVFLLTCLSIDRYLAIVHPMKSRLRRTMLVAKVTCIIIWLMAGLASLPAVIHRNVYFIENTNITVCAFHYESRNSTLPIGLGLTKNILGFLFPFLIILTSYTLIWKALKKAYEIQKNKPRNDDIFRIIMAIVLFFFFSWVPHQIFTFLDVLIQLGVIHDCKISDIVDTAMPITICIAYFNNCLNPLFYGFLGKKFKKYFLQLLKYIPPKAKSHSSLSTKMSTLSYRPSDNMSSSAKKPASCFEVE
T1 sequence (P35351 whole entry): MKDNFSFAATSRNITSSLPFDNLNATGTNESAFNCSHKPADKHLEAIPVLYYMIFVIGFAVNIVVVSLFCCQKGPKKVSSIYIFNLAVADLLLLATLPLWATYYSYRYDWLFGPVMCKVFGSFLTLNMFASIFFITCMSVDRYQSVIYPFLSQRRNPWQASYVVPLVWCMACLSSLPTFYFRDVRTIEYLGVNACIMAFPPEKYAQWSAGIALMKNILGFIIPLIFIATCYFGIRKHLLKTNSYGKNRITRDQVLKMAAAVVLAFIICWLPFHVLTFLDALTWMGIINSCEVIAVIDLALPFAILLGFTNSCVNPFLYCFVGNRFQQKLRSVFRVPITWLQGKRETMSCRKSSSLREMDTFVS
In words: Inhibition of [125I]-AII binding to Angiotensin II receptor of rat uterine membrane.
For the compound `CCCCc1cn(-c2ccccc2CC)c(=O)n1Cc1ccc(-c2ccccc2-c2nn[nH]n2)nc1`, the IC50 worked out at 4.5 nM.
For `CCCCc1cn(-c2c(C(C)C)cccc2C(C)C)c(=O)n1Cc1ccc(-c2ccccc2-c2nn[nH]n2)nc1`, the IC50 is recorded as 34 nM.
Take `CCCCc1cn(-c2c(CC)cccc2CC)c(=O)n1Cc1ccc(-c2ccccc2-c2nn[nH]n2)nc1`: the IC50 is 5 nM.
`CCCCc1cn(-c2ccccc2C(C)C)c(=O)n1Cc1ccc(-c2ccccc2-c2nn[nH]n2)nc1`: the IC50 worked out at 14 nM.
As for `CCCCc1cn(-c2ccccc2C)c(=O)n1Cc1ccc(-c2ccccc2-c2nn[nH]n2)nc1`, the figure is 9.4 nM; as for `CCCCc1cn(-c2ccccc2C(C)(C)C)c(=O)n1Cc1ccc(-c2ccccc2-c2nn[nH]n2)nc1`, 19 nM.
Compound `CCCCc1cn(-c2c(C)cccc2C)c(=O)n1Cc1ccc(-c2ccccc2-c2nn[nH]n2)nc1` returned an IC50 of 5 nM.
The compound `CCCCc1nc(CCCC)n(Cc2ccc(-c3ccccc3-c3nn[nH]n3)cc2)n1` came in with an IC50 of 5.6 nM.
As for `CCCCc1cn(-c2ccccc2)c(=O)n1Cc1ccc(-c2ccccc2-c2nn[nH]n2)nc1`, the figure is 45 nM.
Turning to `CCCCC1=NC2(CCCC2)C(=O)N1Cc1ccc(-c2ccccc2-c2nnn[nH]2)cc1` [IRBESARTAN], the IC50 is recorded as 1.3 nM.
In turn, `CCCCc1cn(CCCC)c(=O)n1Cc1ccc(-c2ccccc2-c2nn[nH]n2)cc1` [SC-51895] gave an IC50 of 12 nM.
The figure for `CCCCc1cn(CCCC)c(=O)n1Cc1ccc(-c2ccccc2-c2nn[nH]n2)nc1` [SC-52892] is 6.5 nM; for `CCCCc1cn([C@H]2[C@H](C)CCC[C@@H]2C)c(=O)n1Cc1ccc(-c2ccccc2-c2nn[nH]n2)nc1` [SC-55634] it is 4.9 nM.

Values taken from ChEMBL document CHEMBL1126489, “N1-sterically hindered 2H-imidazol-2-one angiotensin II receptor antagonists: The conversion of surmountable antagonists to insurmountable antagonists” (Bioorg Med Chem Lett, 1993).
